The results in this text go back to patent publication US20080025960A1, “Detergents with stabilized enzyme systems” (priority 2006, published 2008).

For assay [1], the target named is T1, choline oxidase (Arthrobacter globiformis, UniProt Q7X2H8).
T1 sequence (Q7X2H8 1-546): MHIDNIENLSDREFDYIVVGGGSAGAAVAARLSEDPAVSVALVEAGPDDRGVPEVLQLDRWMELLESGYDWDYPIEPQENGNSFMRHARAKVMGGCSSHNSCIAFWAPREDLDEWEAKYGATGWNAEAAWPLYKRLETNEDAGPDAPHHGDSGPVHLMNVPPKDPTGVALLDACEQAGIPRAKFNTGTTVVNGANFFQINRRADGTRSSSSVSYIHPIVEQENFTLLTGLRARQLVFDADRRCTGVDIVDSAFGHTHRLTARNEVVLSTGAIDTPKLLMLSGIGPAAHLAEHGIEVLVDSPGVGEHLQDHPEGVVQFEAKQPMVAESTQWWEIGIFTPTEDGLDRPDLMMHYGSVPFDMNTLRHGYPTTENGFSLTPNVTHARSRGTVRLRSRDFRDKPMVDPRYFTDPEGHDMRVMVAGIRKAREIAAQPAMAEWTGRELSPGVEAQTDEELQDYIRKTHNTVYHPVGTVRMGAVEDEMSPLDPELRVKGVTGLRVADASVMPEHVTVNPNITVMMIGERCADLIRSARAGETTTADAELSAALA
In words: H2O2 in wash liquor with choline oxidase, choline chloride and inhibitor. The following applies: 2 mM choline chloride, 0.02U enzyme, 0.4 mM AMP inhibitor. The format is biochemical. How it is done:
(§1) The experiments were conducted as described in Example 1. Choline oxidase produces two moles of H2O2 per mole of choline. The results obtained in these experiments confirmed that choline oxidase was stable in AATCC detergent over 24 hour period tested in presence of choline and inhibitors. […] Upon dilution in wash liquor, detergent containing choline oxidase, choline chloride and an inhibitor (e.g., sodium hydrogen sulfite or 2-amino,2-methyl,1-propanol) produced H2O2 over time, as indicated in Table 5.

Assay [2] deals with T1, choline oxidase. Put plainly: H2O2 in control buffer or AATCC liquid detergent stock with choline oxidase, choline and inhibitor. The following applies: for H2O2 PPM: 1 M choline. The format is biochemical. How it is done:
In this Example, experiments conducted to assess the stabilization of choline oxidase in the presence of its substrate (i.e., choline) and an inhibitor (i.e., sodium bisulfite and 2-amino,2-methyl,1-propanol) is described. In these experiments, AATCC standard detergent was used.
as §1

Assay [3] deals with T2, glucose oxidase (Aspergillus niger, UniProt P13006).
T2 construct: purchased Genencor OXYGO L-5000
T2 sequence (P13006 17-605): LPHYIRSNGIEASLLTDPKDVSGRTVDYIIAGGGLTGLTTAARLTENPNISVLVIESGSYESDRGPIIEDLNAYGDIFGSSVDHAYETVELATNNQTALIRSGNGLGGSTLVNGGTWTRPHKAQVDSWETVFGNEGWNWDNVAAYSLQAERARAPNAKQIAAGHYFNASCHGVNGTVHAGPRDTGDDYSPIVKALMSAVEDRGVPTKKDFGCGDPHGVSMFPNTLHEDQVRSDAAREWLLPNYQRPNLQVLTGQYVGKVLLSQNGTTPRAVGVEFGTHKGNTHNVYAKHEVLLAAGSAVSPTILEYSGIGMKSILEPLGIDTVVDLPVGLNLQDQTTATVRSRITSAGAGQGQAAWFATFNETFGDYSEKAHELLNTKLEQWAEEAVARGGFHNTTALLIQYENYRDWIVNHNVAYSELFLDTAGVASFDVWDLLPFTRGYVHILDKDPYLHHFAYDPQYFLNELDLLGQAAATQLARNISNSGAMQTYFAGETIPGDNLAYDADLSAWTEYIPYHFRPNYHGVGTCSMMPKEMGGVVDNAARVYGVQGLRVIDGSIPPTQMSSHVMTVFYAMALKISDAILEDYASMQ
Put plainly: Premature hydrogen peroxide generation by glucose oxidase in control buffer or AATCC liquid detergent stock (as is) with glucose and inhibitor, dipsticks. The following applies: 2 M hydroxylamine; detergent containing 1 M glucose and 500 PPM glucose oxidase. It is filed as biochemical.

For assay [4], the target named is T2, glucose oxidase. Described as above. It is filed as biochemical. The following applies: 1 M inhibitor; same methods as Examples 1-4. From the text: In this Example, experiments conducted to assess the stabilization of glucose oxidase in the presence of its substrate (i.e., glucose) and an inhibitor (i.e., sodium hydrogen sulfite) is described. In these experiments, AATCC standard detergent (American Association of Textile Chemists and Colorists Heavy Duty Liquid detergent version 2003 without brightener; key components include linear alkane sulfonate, alcohol ethoxylate, propanediol, citric acid, fatty acid, castic soda and water; purchased from TestFabrics) was used.
In these experiments, 100 mM Tris pH 8.3, with 0.005% TWEEN®-100 surfactant used as a positive control. […] Three two-ml tubes were weighed with 0.990 g of AATCC detergent (lot # 01282004) and another three tubes with 0.990 g of control buffer. Then, 90 mg (500 mM) of glucose substrate were added to all of the tubes. Next, 100, 50, and 10 mM sodium hydrogen sulfite (MW 106.1) were added to each tube respectively, including the control buffer and AATCC detergent control. All of the tubes were placed on a rotary plate for an hour to allow good mixing and solubilization of glucose into the detergent. Then, 500 PPM (0.5 mg, 14.88 ul) glucose oxidase (OXYGO™ L-5000, 5379 U/ml; 33.6 mg/ml; Genencor) was added to six 2-ml tubes (three with glucose/bisulfite containing control buffers and three with glucose/bisulfite containing AATCC detergent). All of the tubes were then set on the rotary plate (60 rpm) at room temperature. Hydrogen peroxide production was measured using dipsticks (peroxidase/ABTS—Baker Testrips;Baker) at various times—t=0+minutes, 12 minutes, and 30 minutes. The tube containing 100 mM bisulfite with glucose, glucose oxidase in liquid detergent was further monitored for premature generation of hydrogen peroxide further over a period of time starting at 1 hr, 12 hr, 7 days, 12 days and up to 21 days.
In these experiments, 100 mM Tris pH 8.3, with 0.005% TWEEN®-100 surfactant was used as a positive control. […] Three two-ml tubes were weighed with 0.990 g of AATCC detergent (lot # 01282004) and another three tubes with 0.990 g of control buffer.
Three two-ml tubes containing 0.990 g of AATCC detergent (lot # 01282004) and another three tubes with 0.990 g of control buffer were weighed. Then, 90 mg (500 mM) glucose substrate was added to each tube. Then, 100, 50, and 10 mM sodium metabisulfite were added to each tube respectively (i.e., both control buffer and AATCC detergent-containing tubes). All of the tubes were placed on a rotary plate for an hour to allow good mixing and solubilization of glucose into the detergent. Next, 500 PPM (0.5 mg, 14.88 ul) glucose oxidase (OXYGO™ L-5000, 5379 U/ml; 33.6 mg/ml; Genencor) was added to six 2-ml tubes (three with glucose/metabisulfite containing control buffers and three with glucose/metabisulfite containing AATCC detergent). All of the tubes were then set on the rotary plate (60 rpm) at room temperature. H2O2 production was measured using dipsticks (peroxidase/ABTS), as described in Examples 1 and 2, for t=0+ minutes, 12 minutes, and 30 minutes. The tube containing 100 mM bisulfite with glucose, glucose oxidase in liquid detergent was further monitored for premature generation of hydrogen peroxide further over a period of time starting at 1 hr, 12 hr, 7 days, 12 days and up to 21 days.

Assay [5] addresses T3, alcohol oxidase (Pichia angusta, UniProt P04841).
T3 construct: purchased Sigma
In words: Hydrogen peroxide concentration in control buffer or AATCC liquid detergent stock (as is) with alcohol oxidase, ethanol and inhibitor. The format is biochemical, Hansunela sp. The following applies: for H2O2 PPM: as is, 1 M ethanol, 10U enzyme, 100 mM inhibitor. As to the method:
In these experiments, the stability of alcohol oxidase obtained from Hansunela sp., (100 U/ml. 22 U/mg, 13 mg total solid in vial, 7.7 U/mg solid; Sigma) in AATCC liquid detergent was tested. In these experiments, 10 U of the alcohol oxidase were used in liquid detergent stock for each experiment. For testing, 1M ethanol was mixed into the detergent (46 mg ethanol in 990 mg detergent). […] The experiments were conducted as described above in Examples 1 and 3.

In assay [6] the target is T3, alcohol oxidase. Put plainly: Hydrogen peroxide concentration in wash liquor with alcohol oxidase, ethanol and inhibitor. It is filed as biochemical, Hansunela sp. The following applies: 2 mM ethanol, 0.02U enzyme, 0.2 mM inhibitor. As to the method:
The stability and activity of the alcohol oxidase enzyme (described in Example 5) in AATCC liquid detergent (Sigma, 100 U/ml. 22 U/mg, 13 mg total solid in vial, 7.7 U/mg solid) was tested upon dilution into wash liquor. In these experiments, 10 U of alcohol oxidase were used in liquid detergent stock for each experiment. In addition, 1M ethanol (substrate) was mixed in detergent (46 mg ethanol in 990 mg detergent). […] In these experiments, 10 ul of final detergent mix or control mix were added to 5 ml of wash liquor. The same methods as described in Examples 2 and 4 were used in these experiments.

T3 sequence (P04841 whole entry): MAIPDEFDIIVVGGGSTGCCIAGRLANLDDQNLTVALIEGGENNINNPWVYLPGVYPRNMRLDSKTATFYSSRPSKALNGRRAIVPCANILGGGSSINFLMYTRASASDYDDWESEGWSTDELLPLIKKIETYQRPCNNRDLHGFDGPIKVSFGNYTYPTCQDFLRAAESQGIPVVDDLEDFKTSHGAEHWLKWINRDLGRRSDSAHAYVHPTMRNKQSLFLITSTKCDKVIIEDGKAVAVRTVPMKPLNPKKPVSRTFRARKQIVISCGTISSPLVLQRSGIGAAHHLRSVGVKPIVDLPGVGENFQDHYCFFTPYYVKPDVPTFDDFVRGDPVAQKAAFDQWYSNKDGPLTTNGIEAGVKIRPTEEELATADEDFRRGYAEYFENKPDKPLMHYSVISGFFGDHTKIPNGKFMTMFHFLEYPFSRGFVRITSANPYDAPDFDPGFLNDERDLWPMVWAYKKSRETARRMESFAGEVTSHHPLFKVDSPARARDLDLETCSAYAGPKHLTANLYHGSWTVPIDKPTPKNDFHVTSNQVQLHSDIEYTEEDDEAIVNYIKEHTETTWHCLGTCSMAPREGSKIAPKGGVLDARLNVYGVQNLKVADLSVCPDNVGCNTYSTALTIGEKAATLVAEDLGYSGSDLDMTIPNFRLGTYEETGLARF

As for `CC(C)(N)CO` [AMP, 2-amino,2-methyl,1-propanol], the “H2O2 PPM” value was determined as 1 PPM in assay [1] (AATCC Detergent, T = 0+); 3 PPM in assay [1] (AATCC Detergent, T = 12 min); 3 PPM in assay [1] (AATCC Detergent, T = 30 min); 10 PPM in assay [1] (AATCC Detergent, T = 60 min); 1 PPM in assay [1] (Control Buffer, T = 0+); 3 PPM in assay [1] (Control Buffer, T = 12 min). The “H2O2 PPM” value in assay [1] (Control Buffer, T = 30 min) amounted to 3 PPM; in assay [1] (Control Buffer, T = 60 min), 10 PPM; in assay [2] (AATCC Detergent, T = 0+, 1U enzyme, 100 mM AMP inhibitor), 0 PPM; in assay [2] (AATCC Detergent, T = 12 min, 1U enzyme, 100 mM AMP inhibitor), 1 PPM; in assay [2] (AATCC Detergent, T = 12 min, 1U or 10U enzyme, 200 mM AMP (pH ~9.3)), 0 PPM; in assay [2] (Control Buffer, T = 0+, 1U enzyme, 100 mM AMP inhibitor) it was 0 PPM. For the same compound, the “H2O2 PPM” value is recorded as 1 PPM in assay [2] (Control Buffer, T = 12 min, 1U enzyme, 100 mM AMP inhibitor) and 0 PPM in assay [2] (Control Buffer, T = 12 min, 1U or 10U enzyme, 200 mM AMP (pH ~9.3)). Further, in assay [2] (AMP used at 200 mM), the “premature regeneration of H2O2 in detergent” value is recorded as “stops premature regeneration of H2O2”. In assay [2] (sodium hydrogen sulfite at 100 mM concentration tested), the “character of choline oxidase inhibition” value is given as “reversible inhibitor”.

On to `NO` [hydroxylamine], for which the “stabilization of premature hydrogen peroxide generation” value in assay [3] is listed as “can stabilize premature hydrogen peroxide generation”.

Take `[F-].[Na+]` [sodium fluoride]: the glucose oxidase inhibition entry in assay [4] is listed as “small degree of glucose oxidase inhibition”.

For the compound `O=S(O)(O)=S` [sodium thiosulfate], the “character of alcohol oxidase inhibition” value in assay [5] (100 mM concentration tested) is reported as “week inhibitor”. Moreover, the “H2O2 PPM” value in assay [5] (AATCC Detergent, T = 0+) is given as 3 PPM; in assay [5] (AATCC Detergent, T = 120 min), “(>10--thiosulfate) PPM”; in assay [5] (Control Buffer, T = 0+), “˜10 PPM”; in assay [5] (Control Buffer, T = 120 min) it was 0 PPM; in assay [6] (AATCC Detergent, T = 0+), 0 PPM; in assay [6] (AATCC Detergent, T = 30 min), 0 PPM. For the same compound, the “H2O2 PPM” value in assay [6] (AATCC Detergent, T = 120 min) is >3 (thiosulfate) PPM; in assay [6] (Control Buffer, T = 0+), 0 PPM; in assay [6] (Control Buffer, T = 30 min) it was 0 PPM. Further, the glucose oxidase inhibition result in assay [4] is “small degree of glucose oxidase inhibition”.
